We go through 52 compounds from patent US10766914B2, “DNA alkylating agents” (OBI PHARMA, INC., priority 2015, dated 2020).

pIC50: −log10 of the molar value. Bounds are passed on as bounds.

One data set deals with H460 cells. The experiment in a line: Proliferation assay in H460 cells (2 hr exposure, AlamarBlue). Type of data set: cell-based, human. The settings on record: 2 hrs exposure, wash, 70 hrs growth, read-out: IC 50 in proliferation assay in H460 cells. How it is done:
In vitro proliferation data on the H460 […] human tumor cell line is reported above in the compound table.
Specifically, exponentially growing cells were seeded at a density of 4×10^3 cells per well in a 96 well plate and incubated at 37° C. in 5% CO2, 95% air and 100% relative humidity for 24 hours prior to addition of test compounds. Compounds were solubilized in 100% DMSO at 200 times the desired final test concentration. At the time of drug addition, compounds were further diluted to 4 times the desired final concentration with complete medium. Aliquots of 50 μl of compound at specified concentrations were added to microtiter wells already containing 150 μl of medium, resulting in the final drug concentration reported. After drug addition, the plates were incubated for an additional 2 hours at 37° C., 5% CO2, 95% air, and 100% relative humidity, then the drug was washed off and fresh medium was added and the plates were incubated for addition 70 hrs at 37° C., 5% CO2, 95% air and 100% relative humidity. At the end of this incubation, the viable cells were quantified using the AlamarBlue assay. The drug concentration resulting in growth inhibition of 50% (IC50) was calculated using Prism software (Irvine, Calif.), and the results were listed in the table.
Take `CC(OP(=O)(N1CC1)N1CC1)c1ccc([N+](=O)[O-])c(Oc2cccc([N+](=O)[O-])c2)c1` (stereo not drawn) [Compound 2942]: the pIC50 was 7.70. For the compound `CC(OP(=O)(N1CC1)N1CC1)c1ccc([N+](=O)[O-])c(Oc2cccc([N+](=O)[O-])c2)c1` (stereo not drawn) [Compound 2922], the pIC50 was 8.52.

The data set is the same for the next values; noted with them: Homo sapiens, NCI-H460, 2 hrs exposure, wash, 70 hrs growth, read-out: IC 50 in proliferation assay in H460 cells.
`CC(OP(=O)(N1CC1)N1CC1)c1ccc([N+](=O)[O-])c(Oc2ccc(NS(=O)(=O)CCl)cc2)c1` (stereo not drawn) [Compound 2926]: the pIC50 is 7.70. `O=[N+]([O-])c1ccc(COP(=O)(N2CC2)N2CC2)cc1Oc1ccc2ncsc2c1` [Compound 2901]: the pIC50 was 8.52.

With `CNS(=O)(=O)c1ccc(Oc2cc(C(C)OP(=O)(N3CC3)N3CC3)ccc2[N+](=O)[O-])cc1` (stereo not drawn) [Compound 2902], the pIC50 was 7.05. Regarding `CC(OP(=O)(N1CC1)N1CC1)c1ccc([N+](=O)[O-])c(Oc2cnc3cccnc3c2)c1` (stereo not drawn) [Compound 2933], the pIC50 was 7.00. With `CC(OP(=O)(N1CC1)N1CC1)c1ccc([N+](=O)[O-])c(Oc2cccc(C(F)(F)F)c2)c1` (stereo not drawn) [Compound 2871], the pIC50 was 7.52. Consider `CC(OP(=O)(N1CC1)N1CC1)c1ccc([N+](=O)[O-])c(Oc2cccc(C(=O)N(C)c3ccccc3)c2)c1` (stereo not drawn) [Compound 2992], for which the pIC50 is 8.40. For `CNC(=O)c1ccccc1Oc1cc(COP(=O)(N2CC2)N2CC2)ccc1[N+](=O)[O-]` [Compound 2939], the pIC50 is 5.57.

Consider `CC(OP(=O)(N1CC1)N1CC1)c1ccc([N+](=O)[O-])c(Oc2ccc(-c3ccc(F)cc3)cc2)c1` (stereo not drawn) [Compound 3042], for which the pIC50 was 8.30. For `CC(OP(=O)(N1CC1)N1CC1)c1ccc([N+](=O)[O-])c(Oc2ccc(C#N)cc2)c1` (stereo not drawn) [Compound 2872], the pIC50 was 7.52. For the compound `COc1ccc(Oc2cc(COP(=O)(N3CC3)N3CC3)ccc2[N+](=O)[O-])cc1` [Compound 2895], the pIC50 is 8.40. Same read-out and setting: to `Cn1cnc2cc(Oc3cc(COP(=O)(N4CC4)N4CC4)ccc3[N+](=O)[O-])ccc21` [Compound 2921] belongs 8.15; to `O=[N+]([O-])c1ccc(COP(=O)(N2CC2)N2CC2)cc1Oc1ccc2ncccc2c1` [Compound 2971], 8.52. For the compound `CC(OP(=O)(N1CC1)N1CC1)c1cc(Oc2ccccc2)c([N+](=O)[O-])cc1F` (stereo not drawn) [Compound 2846], the pIC50 was 7.22. Still for that read-out and setting: to `CCOC(=O)c1cccc(Oc2cc(C(C)OP(=O)(N3CC3)N3CC3)ccc2[N+](=O)[O-])c1` (stereo not drawn) [Compound 2854] belongs over 8.30; to `CC(OP(=O)(N1CC1)N1CC1)c1ccc([N+](=O)[O-])c(Oc2cccc3cnccc23)c1` (stereo not drawn) [Compound 2945], 7.30; to `O=C(c1cccc(Oc2cc(COP(=O)(N3CC3)N3CC3)ccc2[N+](=O)[O-])c1)N1CCCCC1` [Compound 2983], 8.40. In the case of `CC(OP(=O)(N1CC1)N1CC1)c1ccc([N+](=O)[O-])c(Oc2cccc(C(=O)N3CCS(=O)(=O)CC3)c2)c1` (stereo not drawn) [Compound 2993], the pIC50 was 7.70.

Take `CC(OP(=O)(N1CC1)N1CC1)c1ccc([N+](=O)[O-])c(Oc2ccccc2C(=O)N(C)C)c1` (stereo not drawn) [Compound 2885]: the pIC50 is 5.43.

As for `CC(OP(=O)(N1CC1)N1CC1)c1ccc([N+](=O)[O-])c(Oc2cccc(C(=O)N3CCCCC3)c2)c1` (stereo not drawn) [Compound 2982], the pIC50 was 8.40. Turning to `Cc1ccc(Oc2cc(COP(=O)(N3CC3)N3CC3)ccc2[N+](=O)[O-])cc1` [Compound 3031], the pIC50 is 8.00.

Consider `CC(OP(=O)(N1CC1)N1CC1)c1ccc([N+](=O)[O-])c(Oc2ccc([N+](=O)[O-])cc2)c1` (stereo not drawn) [Compound 2935], for which the pIC50 was 7.70. Still for that read-out and setting: as for `O=[N+]([O-])c1ccc(COP(=O)(N2CC2)N2CC2)cc1Oc1ccc(F)nc1` [Compound 2892], the figure is 8.70.

`CC(OP(=O)(N1CC1)N1CC1)c1ccc([N+](=O)[O-])c(Oc2nc3ccccc3s2)c1` (stereo not drawn) [Compound 2878]: the pIC50 was 5.36.

As to `Cc1nc2cc(Oc3cc(C(C)OP(=O)(N4CC4)N4CC4)ccc3[N+](=O)[O-])ccc2s1` (stereo not drawn) [Compound 2928], the pIC50 is 7.52. For `Nc1ccc(Oc2cc(COP(=O)(N3CC3)N3CC3)ccc2[N+](=O)[O-])cc1` [Compound 2896], the pIC50 is 7.00.

Turning to `CS(=O)(=O)Nc1ccc(Oc2cc(COP(=O)(N3CC3)N3CC3)ccc2[N+](=O)[O-])cc1` [Compound 2946], the pIC50 is 7.52.

As to `CC(OP(=O)(N1CC1)N1CC1)c1ccc([N+](=O)[O-])c(Oc2ccc(C(F)(F)F)cc2)c1` (stereo not drawn) [Compound 3036], the pIC50 is 8.40.

In the case of `CC(OP(=O)(N1CC1)N1CC1)c1ccc([N+](=O)[O-])c(Oc2ccc3c(c2)OCO3)c1` (stereo not drawn) [Compound 2866], the pIC50 was 7.70. With `CC(OP(=O)(N1CC1)N1CC1)c1ccc([N+](=O)[O-])c(Oc2ccc(C(=O)N(C)C)cc2)c1` (stereo not drawn) [Compound 2908], the pIC50 was 8.15. For `O=[N+]([O-])c1ccc(COP(=O)(N2CC2)N2CC2)c(Oc2ccccc2)c1` [Compound 2960], the pIC50 was 5.80. Consider `CC(OP(=O)(N1CC1)N1CC1)c1ccc([N+](=O)[O-])c(Oc2ccc(C(C)(C)C)cc2)c1` (stereo not drawn) [Compound 3034], for which the pIC50 was 8.10. With `NS(=O)(=O)c1ccc(Oc2cc(COP(=O)(N3CC3)N3CC3)ccc2[N+](=O)[O-])cc1` [Compound 2887], the pIC50 was 6.70. The same measure, in the same setting: as for `O=[N+]([O-])c1ccc(Oc2cc(COP(=O)(N3CC3)N3CC3)ccc2[N+](=O)[O-])cc1` [Compound 2934], the figure is 8.52. On the same count and under the same terms, as for `O=[N+]([O-])c1ccc(COP(=O)(N2CC2)N2CC2)cc1Oc1cnc2ccccc2c1` [Compound 2969], the figure is 8.70; as for `C/C(=N\Oc1cc(COP(=O)(N2CC2)N2CC2)ccc1[N+](=O)[O-])c1ccccc1` [Compound 2949], 6.40. For the compound `CC(OP(=O)(N1CC1)N1CC1)c1ccc([N+](=O)[O-])c(Oc2cccc3ccccc23)c1` (stereo not drawn) [Compound 2954], the pIC50 was 7.00. `Cc1ccc(Oc2cc(C(C)OP(=O)(N3CC3)N3CC3)ccc2[N+](=O)[O-])cn1` (stereo not drawn) [Compound 2891]: the pIC50 is 7.52. As to `CC(OP(=O)(N1CC1)N1CC1)c1ccc([N+](=O)[O-])c(Oc2ccc3cnn(C)c3c2)c1` (stereo not drawn) [Compound 2917], the pIC50 is 7.70. As to `CC(OP(=O)(N1CC1)N1CC1)c1ccc([N+](=O)[O-])c(Oc2ccccn2)c1` (stereo not drawn) [Compound 2874], the pIC50 was 6.30. Regarding `CN(C)C(=O)c1ccccc1Oc1cc(COP(=O)(N2CC2)N2CC2)ccc1[N+](=O)[O-]` [Compound 2938], the pIC50 was 5.60.

In the case of `O=[N+]([O-])c1ccc(COP(=O)(N2CC2)N2CC2)cc1Oc1ccc(C(F)(F)F)cc1` [Compound 3037], the pIC50 is 9.00. As to `CC(OP(=O)(N1CC1)N1CC1)c1ccc([N+](=O)[O-])c(Oc2cccc(C(=O)N3CCCC3)c2)c1` (stereo not drawn) [Compound 2984], the pIC50 is 8.30. On the same count and under the same terms, as for `CCOC(=O)c1ccc(Oc2cc(COP(=O)(N3CC3)N3CC3)ccc2[N+](=O)[O-])cc1` [Compound 2876], the figure is 8.52; as for `O=[N+]([O-])c1ccc(COP(=O)(N2CC2)N2CC2)cc1Oc1ccc(-c2ccncc2)cc1` [Compound 3050], 8.00. As for `CC(OP(=O)(N1CC1)N1CC1)c1ccc([N+](=O)[O-])c(Oc2ccc(-c3ccc(Cl)cc3)cc2)c1` (stereo not drawn) [Compound 3041], the pIC50 was 7.30. Consider `CC(OP(=O)(N1CC1)N1CC1)c1ccc([N+](=O)[O-])c(Oc2ccc(NS(C)(=O)=O)cc2)c1` (stereo not drawn) [Compound 2912], for which the pIC50 was 7.40. For the compound `O=[N+]([O-])c1ccc(COP(=O)(N2CC2)N2CC2)cc1Oc1cccc2ccccc12` [Compound 2966], the pIC50 is 6.70. Regarding `O=[N+]([O-])c1ccc(COP(=O)(N2CC2)N2CC2)cc1Oc1ccc2cccnc2c1` [Compound 2970], the pIC50 is 7.40.

As to `CS(=O)(=O)c1ccccc1Oc1cc(COP(=O)(N2CC2)N2CC2)ccc1[N+](=O)[O-]` [Compound 2981], the pIC50 was 5.43. Consider `O=[N+]([O-])c1ccc(COP(=O)(N2CC2)N2CC2)cc1Oc1ccc2ccccc2c1` [Compound 2968], for which the pIC50 was 8.40.

Tested on in another data set: not listed separately
The experiment in a line: Pharmacokinetics in CD-1 mice following a single intraperitoneal dose (parent and TH2660). The settings on record: mouse, in vivo, ip, parent compound. How it is done:
The pharmacokinetics of TH2873, TH2883, TH2888, TH2890, TH2901 and TH2926 were determined in CD-1 mice following a single intraperitoneal dose.
The pharmacokinetics of TH2660, the active metabolite, following a single intraperitoneal dose of TH2873, TH2883, TH2888, TH2890, TH2901 and TH2926 are shown below.
As for `CC(OP(=O)(N1CC1)N1CC1)c1ccc([N+](=O)[O-])c(Oc2ccc(NS(=O)(=O)CCl)cc2)c1` (stereo not drawn) [Compound 2926], the AUC (as a rule, concentration integrated over time) is 9.65 µg·h/mL; the highest concentration (Cmax) (as a rule, the highest concentration seen after dosing) was found to be 8.34 µg/mL; the Tmax (as a rule, the time from dosing to the highest level) was 15 min; the half-life – broadly, the time needed for the level to fall by half in the phase considered – stood at 34.2 min. In the case of `O=[N+]([O-])c1ccc(COP(=O)(N2CC2)N2CC2)cc1Oc1ccc2ncsc2c1` [Compound 2901], the exposure (AUC) is 2.58 µg·h/mL, the maximum concentration (Cmax) was found to be 5.12 µg/mL, the time of peak concentration (Tmax) was 5 min and the half-life came to 12.1 min.
